In patent publication US20190315878A1, “BISPECIFIC ANTIBODIES THAT MODULATE TLR-4 SIGNALING AND USES THEREOF” (ARGOS THERAPEUTICS INC., priority 2016, published 2019):

Columns and labels:
[1] = tested on: stimulated PBMC cultures; assay: Cytokine secretion from stimulated PBMC cultures (Cytometric Bead Array); format: cell-based, human; conditions: COX-2 inhibitor in combination with sCD83
Protocol: (§1) To evaluate cytokine secretion from stimulated PBMC cultures in response to sCD83 treatment, the supernatant was collected after culture and analyzed for human cytokines using the Cytometric Bead Array kit (BD® Biosciences) according to the manufacturer's instructions. Data were analyzed using the FCAP Array software (BD® Biosciences). PGE2 concentrations were measured using a competitive ELISA kit (Thermofisher).

[2] = tested on: stimulated PBMC cultures; assay: PGE2 secretion from stimulated PBMC cultures (competitive ELISA); format: cell-based, human; conditions: COX-2 inhibitor in combination with sCD83; FIG. 9E
Protocol: as §1

[3] = molecular target: T1, MD-2 binding to sCD83-m3 (Homo sapiens, UniProt Q9Y6Y9); assay: LPS derivatives pre-incubated with MD-2; loss of MD-2 binding to sCD83 (cell free ELISA); conditions: for % inhibition of MD-2 binding to sCD83-m3: LPS derivatives pre-incubated with MD-2, cell free ELISA; for blocking of MD-2 binding to sCD83: FIG. 6B
T1 sequence (Q9Y6Y9 17-160 limits assumed): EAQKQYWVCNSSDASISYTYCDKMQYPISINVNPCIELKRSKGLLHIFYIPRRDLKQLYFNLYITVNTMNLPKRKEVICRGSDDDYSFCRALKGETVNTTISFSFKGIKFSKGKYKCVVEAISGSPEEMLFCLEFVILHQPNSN
Protocol: sCD83 was prepared at 1 μg/mL in Coating Buffer (BD® Bioscience OptEIA ELISA Reagent Set B) and incubated overnight at 4° C. Plates were washed with wash buffer (PBS with 0.05% Tween 20, BD® Bioscience OptEIA Reagent Set B) three times using an ELx405 auto plate washer and then 300 μl of blocking buffer (1% BSA in PBS) was added to each well. The plates were then incubated for 2 hours at 37° C. to block and then washed three times with wash buffer. The protein of interest (MD-2, CD14, MD-2+LPS, or LPS) (R&D Systems®, Inc., Sigma) was serially diluted in seven tubes, and then 100 μl of the diluted protein samples were transferred to the appropriate wells on the capture plate. The plates were then incubated for 1 hour at room temperature in the dark. Plates were washed and goat anti-human biotinylated CD83 detection antibody (R&D Systems®, Inc.) was added at 100 μl/well and incubated for 2 hours at room temperature in the dark. The plates were then washed, and streptavidin-HRP was prepared at a 1:1000 dilution and added at 100 μl/well. The plates were incubated for 1 hour at room temperature in the dark and then washed, and development solution was prepared by combining equal parts of Substrate A plus Substrate B (BD® OptEIA ELISA Reagent Set B) and added to the plates (100 μl/well). The plates were allowed to develop for 1-10 minutes and the reaction was stopped by adding 50 μl/well of stop solution (BD® OptEIA reagents set B). The plates were analyzed on a ELx800 universal microplate reader at 450 nm.
In order to map the sCD83 binding site on MD-2, recombinant MD-2 protein was pre-incubated with each of several LPS derivatives prior to being added to plates coated with sCD83 protein. […] If MD-2 bound to LPS or the LPS derivatives blocked sCD83 binding, the interaction of sCD83 with MD-2 may mimic antagonist regulation of TLR signaling.

[4] = tested on: IRAK-1; assay: Western blotting of GM-CSF-cultured monocytes; format: cell-based, human; conditions: 60 minutes; 25 μg/ml sCD83 or 100 ng/ml LPS; FIG. 7A
Protocol: Monocytes were isolated from PBMC using negative selection (Stemcell) and cultured in R-10 medium ((10% fetal bovine serum (FBS; Atlanta Biologicals), Roswell Park Memorial Institute-1640 (supplemented with 10 mM 4-2-hydroxyethyl-1-piperazineethanesulfonic acid pH 7.4, 1 mM sodium pyruvate, 0.1 mM nonessential amino acids, 2 mM sodium glutamate, and […] 2-mercaptoethanol; Invitrogen® Corp.)) with GM-CSF overnight. sCD83 or LPS was then added for the indicated time points. Cells were lysed in ice cold RIPA buffer in the presence of a protease/phosphatase inhibitor cocktail ([…]). Bradford (BCA) protein assay (Thermo Scientific) was performed to determine total protein concentrations. 4-5 μg of each lysate sample was run on each lane of a Criterion 10-20% Tris-HCL gel at 200V for 50 minutes. The gel was transferred to PVDF membrane at 100V for 75 minutes. […]
The inventors studied the expression of IRAK proteins in the presence of sCD83. […] IRAK-1 protein was detected in untreated cultures and LPS-treated cultures, in contrast to cultures treated with sCD83 (FIG. 7A). Furthermore, no change in IRAK-2, IRAK-4, and IRAK-M protein levels was detected when cells were treated with sCD83 for 60 minutes.

[5] = tested on: sCD83-m3 binding on monocytes; assay: Antibody blocking of sCD83-m3 binding to PBMCs / monocytes (Example 2); design: species or system human; conditions: post-thaw PBMCs
Protocol: For antibody blocking experiments, cells were pre-incubated with the indicated purified antibodies to CD14 (clone M5E2, BD® Biosciences; clone 61D3, eBioscience® Corp.; clone My4, Beckman Coulter®, Inc.), to CD44s (clone 515, BD® Biosciences; clone 1M7, eBioscience® Corp.; and clone 156-3c11 and clone 5F12, Invitrogen® Corp.), to CD44v6 (clone VFF-7, eBiosciences® Corp.) to TLR4/MD-2 (clone MTS510, eBioscience® Corp.) or to MD-2 (clone 984, eBioscience® Corp.; clone 288307, R&D Systems®, Inc.) for 15 minutes at room temperature without washing prior to addition of sCD83 protein. Isotype control IgG1 and IgG2a antibodies were purchased from eBioscience® Corp.. Cells were washed with 2 mL BD® Stain Buffer (FBS) and incubated with 5 μl of Goat anti-human CD83 biotin (R&D Systems®, Inc.) for 15 minutes at room temperature. Cells were washed twice with 2 ml BD® Stain Buffer (FBS) and incubated with 20 μl of Streptavidin APC (BD® Biosciences) for 15 minutes at room temperature. Background staining was determined without the addition of sCD83 protein. […]

[6] = tested on: IRAK-1; assay: IRAK assay of CD83 activity in macrophage cultures (Western blot); format: cell-based, human
Protocol: The IRAK Assay measures the rapid down-regulation of IRAK-1 protein by sCD83 in macrophage cultures. PBMCs were cultured in the presence of GM-CSF for 5 days. Macrophages were harvested and cultured overnight in media containing GM-CSF, then incubated in the presence or absence of a test antibody in 1 mL cultures for various times. Cell lysates were then used to prepare a Western blot and evaluated for IRAK expression as described in more detail in working Example 3.
One vial (2×10^8 total cells) of 2124557 PBMCs were thawed and cultured in T-150 flask with 1000 U/mL GM-CSF for 5 days. The macrophages were harvested, counted and resuspended at 1×10^6 cells/mL in R-10 media with GM-CSF and then cultured overnight. The cells were incubated with various preparations of sCD83 polypeptides, +/−25 μg/mL in 1 mL cultures for various times and then lysed in ice cold RIPA buffer with protease/phosphatase inhibitor cocktail. Bradford (BCA) protein assay was performed to determine total protein concentration.
4-5 μg of each lysate sample was run on a lane of a Criterion 10-20% Tris-HCL gel at 200V for 50 minutes. The gel was transferred to PVDF membrane at 100V for 75 minutes. […]

Molecule: CS(=O)(=O)Nc1ccc([N+](=O)[O-])cc1OC1CCCCC1 [NS-398]
- IL-6 secretion ([1]; FIG. 9C): marginal effect
- sCD83 induced IL-10 secretion ([1]; FIG. 9D): suppressed sCD83 inducted IL-10 secretion
- PGE2 production [2]: blocked PGE2 production

Molecule: KDO-lipid A [KDO-Lipid A variant]
- % inhibition of MD-2 binding to sCD83-m3 [3]: 93%
- blocking of MD-2 binding to sCD83 ([3]; added first to sCD83 bound plates and washed prior to addition of MD-2 protein): no longer blocked MD-2 binding to sCD83
- blocking of MD-2 binding to sCD83 ([3]; pre-incubated with MD-2): prevented MD-2 binding to sCD83
- blocking of MD-2 binding to sCD83 ([3]; pre-incubated with MD-2, listed as KDO): blocks sCD83 binding to MD-2

Molecule: diphosphoryl-Lipid A [Lipid A Diphos]
- % inhibition of MD-2 binding to sCD83-m3 [3]: 19%

Molecule: lipopolysaccharide [LPS]
- % inhibition of MD-2 binding to sCD83-m3 [3]: 25%
- IRAK-1 protein expression [4]: detected
- % inhibition (relative to control) [5]: 5%
- down-regulation of IRAK-1 protein in macrophage cultures [6]: does not have this effect
- IRAK assay result ([6]; macrophages, 25 μg/mL): negative result

Molecule: monophosphoryl-Lipid A [Lipid A Monophos]
- % inhibition of MD-2 binding to sCD83-m3 [3]: 22%
